Reference: ChEMBL document CHEMBL4715697, “Synthesis and biological activity of benzamide DNA minor groove binders” (2016)

How the values were obtained:
Assay type in all cases: functional
ACHN = assay: Growth inhibition of human ACHN cells assessed as cell growth at 100 uM incubated for 48 hrs by sulforhodamine B assay relative to control; details: read-out: Activity
MCF7 [1] = assay: Growth inhibition of human MCF7 cells assessed as cell growth at 1 uM incubated for 48 hrs by sulforhodamine B assay relative to control; details: read-out: Activity
786-0 [2] = assay: Growth inhibition of human 786-0 cells assessed as cell growth at 0.1 uM incubated for 48 hrs by sulforhodamine B assay relative to control; details: read-out: Activity
UACC-257 [3] = assay: Growth inhibition of human UACC-257 cells assessed as cell growth at 0.01 uM incubated for 48 hrs by sulforhodamine B assay relative to control; details: read-out: Activity
786-0 [4] = assay: Growth inhibition of human 786-0 cells assessed as cell growth at 0.01 uM incubated for 48 hrs by sulforhodamine B assay relative to control; details: read-out: Activity
SF-268 [5] = assay: Growth inhibition of human SF-268 cells assessed as cell growth at 100 uM incubated for 48 hrs by sulforhodamine B assay relative to control; details: read-out: Activity
NCI-H522 = assay: Growth inhibition of human NCI-H522 cells assessed as cell growth at 100 uM incubated for 48 hrs by sulforhodamine B assay relative to control; details: read-out: Activity
SF-539 = assay: Growth inhibition of human SF-539 cells assessed as cell growth at 1 uM incubated for 48 hrs by sulforhodamine B assay relative to control; details: read-out: Activity
SF-268 [6] = assay: Growth inhibition of human SF-268 cells incubated for 48 hrs by sulforhodamine B assay
EKVX = assay: Growth inhibition of human EKVX cells assessed as cell growth at 0.1 uM incubated for 48 hrs by sulforhodamine B assay relative to control; details: read-out: Activity
CCRF-CEM = assay: Growth inhibition of human CCRF-CEM cells assessed as cell growth at 100 uM incubated for 48 hrs by sulforhodamine B assay relative to control; details: read-out: Activity
UACC-62 [7] = assay: Growth inhibition of human UACC-62 cells assessed as cell growth at 1 uM incubated for 48 hrs by sulforhodamine B assay relative to control; details: read-out: Activity
NCI-H322M = assay: Growth inhibition of human NCI-H322M cells incubated for 48 hrs by sulforhodamine B assay
HCT-116 = assay: Growth inhibition of human HCT-116 cells assessed as cell growth at 0.01 uM incubated for 48 hrs by sulforhodamine B assay relative to control; details: read-out: Activity
SNB-75 = assay: Growth inhibition of human SNB-75 cells assessed as cell growth at 0.01 uM incubated for 48 hrs by sulforhodamine B assay relative to control; details: read-out: Activity
SK-MEL-28 = assay: Growth inhibition of human SK-MEL-28 cells incubated for 48 hrs by sulforhodamine B assay
SK-MEL-2 = assay: Growth inhibition of human SK-MEL-2 cells assessed as cell growth at 1 uM incubated for 48 hrs by sulforhodamine B assay relative to control; details: read-out: Activity
SNB-19 [8] = assay: Growth inhibition of human SNB-19 cells assessed as cell growth at 100 uM incubated for 48 hrs by sulforhodamine B assay relative to control; details: read-out: Activity
PC-3 = assay: Growth inhibition of human PC-3 cells assessed as cell growth at 0.01 uM incubated for 48 hrs by sulforhodamine B assay relative to control; details: read-out: Activity
K562 = assay: Growth inhibition of human K562 cells assessed as cell growth at 0.01 uM incubated for 48 hrs by sulforhodamine B assay relative to control; details: read-out: Activity
UACC-62 [9] = assay: Growth inhibition of human UACC-62 cells assessed as cell growth at 0.1 uM incubated for 48 hrs by sulforhodamine B assay relative to control; details: read-out: Activity
NCI-H23 = assay: Growth inhibition of human NCI-H23 cells assessed as cell growth at 1 uM incubated for 48 hrs by sulforhodamine B assay relative to control; details: read-out: Activity
SF-295 = assay: Growth inhibition of human SF-295 cells assessed as cell growth at 0.1 uM incubated for 48 hrs by sulforhodamine B assay relative to control; details: read-out: Activity
MCF7 [10] = assay: Growth inhibition of human MCF7 cells assessed as cell growth at 0.01 uM incubated for 48 hrs by sulforhodamine B assay relative to control; details: read-out: Activity
SW-620 = assay: Growth inhibition of human SW-620 cells assessed as cell growth at 0.01 uM incubated for 48 hrs by sulforhodamine B assay relative to control; details: read-out: Activity
SK-MEL-5 = assay: Growth inhibition of human SK-MEL-5 cells assessed as cell growth at 100 uM incubated for 48 hrs by sulforhodamine B assay relative to control; details: read-out: Activity
MDA-MB-231 = assay: Growth inhibition of human MDA-MB-231 cells incubated for 48 hrs by sulforhodamine B assay
OVCAR-8 [11] = assay: Growth inhibition of human OVCAR-8 cells assessed as cell growth at 0.01 uM incubated for 48 hrs by sulforhodamine B assay relative to control; details: read-out: Activity
SR = assay: Growth inhibition of human SR cells assessed as cell growth at 100 uM incubated for 48 hrs by sulforhodamine B assay relative to control; details: read-out: Activity
OVCAR-8 [12] = assay: Growth inhibition of human OVCAR-8 cells assessed as cell growth at 0.1 uM incubated for 48 hrs by sulforhodamine B assay relative to control; details: read-out: Activity
OVCAR-3 = assay: Growth inhibition of human OVCAR-3 cells assessed as cell growth at 0.01 uM incubated for 48 hrs by sulforhodamine B assay relative to control; details: read-out: Activity
OVCAR-5 = assay: Growth inhibition of human OVCAR-5 cells incubated for 48 hrs by sulforhodamine B assay
MDA-MB-468 = assay: Growth inhibition of human MDA-MB-468 cells assessed as cell growth at 100 uM incubated for 48 hrs by sulforhodamine B assay relative to control; details: read-out: Activity
UACC-257 [13] = assay: Growth inhibition of human UACC-257 cells assessed as cell growth at 0.1 uM incubated for 48 hrs by sulforhodamine B assay relative to control; details: read-out: Activity
SNB-19 [14] = assay: Growth inhibition of human SNB-19 cells assessed as cell growth at 1 uM incubated for 48 hrs by sulforhodamine B assay relative to control; details: read-out: Activity
UO-31 = assay: Growth inhibition of human UO-31 cells assessed as cell growth at 100 uM incubated for 48 hrs by sulforhodamine B assay relative to control; details: read-out: Activity
[15] = read-out: LC50 (the source's name)
[16] = read-out: pLC50 (the source's name) (converted)

In the case of `CC(=O)Nc1cc(CCl)cc(NC(=O)c2ccc(C(=O)Nc3cccc(NC(=O)CCCN(C)C)c3)cc2)c1`, the growth at 100 µM (ACHN) is reported as 104%, the growth at 1 µM (MCF7 [1]) is reported as 81% and the growth at 0.1 µM (786-0 [2]) is reported as 104%. It also gave a growth at 0.01 µM (UACC-257 [3]) of 97%, a growth at 0.01 µM (786-0 [4]) of 106% and a growth at 100 µM (SF-268 [5]) of 88%. For the same compound, the growth at 100 µM (NCI-H522) was 83%, the growth at 1 µM (SF-539) was 104% and the GI50 (SF-268 [6]; read-out: GI50) was > 100 µM. For the same compound, the LC50 (SF-268 [6]; read-out: LC50) was > 100 µM, the TGI (SF-268 [6]; read-out: TGI) was > 100 µM and the GI50 (SF-268 [6]; read-out: pGI50 (converted)) was > 100 µM. The LC50 (SF-268 [6]; read-out: pLC50 (converted)) was > 100 µM, the TGI (SF-268 [6]; read-out: pTGI) was > 100 µM and the growth at 0.1 µM (EKVX) was 87%. For the same compound, the growth at 100 µM (CCRF-CEM) was -70%, the growth at 1 µM (UACC-62 [7]) was 102% and the GI50 (NCI-H322M; read-out: GI50) was > 100 µM. For the same compound, the CC50 (NCI-H322M; [15]) was > 100 µM, the TGI (NCI-H322M; read-out: TGI) was > 100 µM and the GI50 (NCI-H322M; read-out: pGI50 (converted)) was > 100 µM. The CC50 (NCI-H322M; [16]) was > 100 µM, the TGI (NCI-H322M; read-out: pTGI) was > 100 µM and the growth at 0.01 µM (HCT-116) was 109%. For the same compound, the growth at 0.01 µM (SNB-75) was 82%, the GI50 (SK-MEL-28; read-out: GI50) was > 100 µM and the LC50 (50% lethal concentration) (SK-MEL-28; read-out: LC50) was > 100 µM. The TGI (SK-MEL-28; read-out: TGI) was > 100 µM, the GI50 (SK-MEL-28; read-out: pGI50 (converted)) was > 100 µM and the LC50 (50% lethal concentration) (SK-MEL-28; read-out: pLC50 (converted)) was > 100 µM. The TGI (SK-MEL-28; read-out: pTGI) was > 100 µM, the growth at 1 µM (SK-MEL-2) was 109% and the growth at 100 µM (SNB-19 [8]) was 117%. The growth at 0.01 µM (PC-3) was 104%, the growth at 0.01 µM (K562) was 97% and the growth at 0.1 µM (UACC-62 [9]) was 103%. For the same compound, the growth at 1 µM (NCI-H23) was 93%, the growth at 0.1 µM (SF-295) was 74% and the growth at 0.01 µM (MCF7 [10]) was 88%. For the same compound, the growth at 0.01 µM (SW-620) was 106%, the growth at 100 µM (SK-MEL-5) was 75% and the GI50 (MDA-MB-231; read-out: GI50) was > 100 µM. The CC50 (MDA-MB-231; [15]) was > 100 µM, the TGI (MDA-MB-231; read-out: TGI) was > 100 µM and the GI50 (MDA-MB-231; read-out: pGI50 (converted)) was > 100 µM. For the same compound, the CC50 (MDA-MB-231; [16]) was > 100 µM, the TGI (MDA-MB-231; read-out: pTGI) was > 100 µM and the growth at 0.01 µM (OVCAR-8 [11]) was 102%. The growth at 100 µM (SR) was 99%, the growth at 0.1 µM (OVCAR-8 [12]) was 97% and the growth at 0.01 µM (OVCAR-3) was 112%. For the same compound, the GI50 (OVCAR-5; read-out: GI50) was > 100 µM, the LC50 (OVCAR-5; read-out: LC50) was > 100 µM and the TGI (OVCAR-5; read-out: TGI) was > 100 µM. For the same compound, the GI50 (OVCAR-5; read-out: pGI50 (converted)) was > 100 µM, the LC50 (OVCAR-5; read-out: pLC50 (converted)) was > 100 µM and the TGI (OVCAR-5; read-out: pTGI) was > 100 µM. For the same compound, the growth at 100 µM (MDA-MB-468) was 51%, the growth at 0.1 µM (UACC-257 [13]) was 93% and the growth at 1 µM (SNB-19 [14]) was 104%. It also gave a growth at 100 µM (UO-31) of 113%.
